# Experimental data reported in ChEMBL document CHEMBL1139951, “Synthesis and local anesthetic activity of fluoro-substituted imipramine and its analogues” (Bioorg Med Chem Lett, 2007).
# Experiments:
# [1] = Dissociation constant, pKa by potentiometric titration method; type: physicochemical
# [2] = test system: Sciatic nerve; assay: Anesthetic activity in toad sciatic nerves assessed as sciatic nerve block activity relative to Lidocaine; type: functional, Bufo bufo; parameters: unit not given here
# [3] = test system: Sciatic nerve; assay: Anesthetic activity in toad sciatic nerves assessed as sciatic nerve block activity; type: functional, Bufo bufo
# [4] = test system: Sciatic nerve; assay: Anesthetic activity in toad sciatic nerves assessed as latent period of sciatic nerve block; type: functional, Bufo bufo
pKa [1],SMILES,Activity [2],Activity [3],Latent period of sciatic nerve block [4]
7.7,CN(C)CCCN1c2cc(F)ccc2CCc2ccc(F)cc21,,,
7.7,CCN(CC)CCCN1c2cc(F)ccc2CCc2ccc(F)cc21,,,
7.6,Fc1ccc2c(c1)N(CCCN1CCCCC1)c1cc(F)ccc1CC2,,,
7.6,Fc1ccc2c(c1)N(CCCN1CCOCC1)c1cc(F)ccc1CC2,,,
7.9,Fc1ccc2c(c1)N(CCCN1CCCC1)c1cc(F)ccc1CC2,,,
,Cl.Fc1ccc2c(c1)N(CCCN1CCOCC1)c1cc(F)ccc1CC2,65.5,0.029%,37.3 min
,CN(C)CCCN1c2cc(F)ccc2CCc2ccc(F)cc21.Cl,20.2,0.094%,30.7 min
,CCN(CC)CC(=O)Nc1c(C)cccc1C.Cl,100,0.019%,37.2 min
,CCN(CC)CCCN1c2cc(F)ccc2CCc2ccc(F)cc21.Cl,105.5,0.018%,38.2 min
,Cl.Fc1ccc2c(c1)N(CCCN1CCCC1)c1cc(F)ccc1CC2,27.5,0.069%,40.6 min
,Cl.Fc1ccc2c(c1)N(CCCN1CCCCC1)c1cc(F)ccc1CC2,48.7,0.039%,39.8 min
